Reference: patent US12502379B2, “Ponesimod for avoiding worsening of fatigue-related symptoms in multiple sclerosis patients” (Vanda Pharmaceuticals Inc., priority 2019, dated 2025)

Assays:
[1] = Treatment-emergent adverse events, Safety Set
Description: A prospective, multicenter, randomized, double-blind, active controlled, parallel-group, phase III, superiority study was conducted.
The Safety Set (SAF) included all randomized subjects who received at least one dose of study treatment. Subjects were analyzed based on actual treatment taken, not randomized treatment.

[2] = ALT increase relative to ULN; assay type: in vivo, human; settings: ponesimod 20 mg arm, teriflunomide 14 mg arm
[3] = test system: adult subjects with relapsing MS; experiment: Combined unique active lesions (CUAL) on brain MRI from baseline to Week 108; assay type: in vivo, human
Description: (§1) Secondary efficacy variables and testing strategy: Four secondary efficacy endpoints were analyzed as per the statistical testing strategy outlined in FIG. 1. • Change from baseline to Week 108 in fatigue-related symptoms as measured by the symptoms domain of the FSIQ-RMS patient-reported outcome [Fatigue] • Cumulative number of combined unique active lesions from baseline to Week 108 on brain MRI [CUALs] • Time to first 12-week confirmed disability accumulation (CDA) from baseline to EOS on Expanded Disability Status Scale (EDSS) [12-week CDA] • Time to first 24-week CDA from baseline to EOS on EDSS [24-week CDA]
CUAL are new Gd+T1 lesions plus new or enlarging T2 lesions (without double-counting of lesions).
MRI scans were performed at Visits 2 (Baseline), 10 (Week 60), and 14 (EOT) and at any unscheduled visit (U1, U2, etc.). If applicable, MRI scans also were performed at the corresponding visits in the PTOP (Visits 10A and 14A). Testing at all visits were performed up to 7 days prior to or after the visit date.
MRI variables included the number and volume of new and total Gd+ lesions on T1-weighted MRI scans, number of new and enlarging lesions and lesion volume on T2-weighted MRI, and global measures of loss of brain tissue.
T1-weighted imaging before and after i.v. administration of 0.1 mmol/kg body weight (=0.2 mL/kg) of Gd as well as PD-T2-weighted imaging was performed. […]

[4] = test system: Patients (18-55 years) with RMS; experiment: No evidence of disease activity (NEDA-3) status; assay type: in vivo, human; settings: PON 20 mg vs TER 14 mg; week 108
Description: (§2) In this study, prespecified MRI-based endpoints and no evidence of disease activity (NEDA) status is evaluated.
(§3) Patients (18-55 years) with RMS (expanded disability status scale scores: 0-5.5) were randomized (1:1) to receive ponesimod (PON) 20 mg or teriflunomide (TER) 14 mg for 108 weeks. MRI assessments were: volume of T2 lesions; mean number of new gadolinium-enhancing (Gd+) T1 lesions and new/enlarging T2 lesions; and absence of active MRI lesions at week 108. NEDA-3 status (absence of confirmed relapse, Gd+T1 lesions and new/enlarging T2 lesions on annual MRIs, and 12-week confirmed disability accumulation) was evaluated from baseline to week 108.

[5] = test system: Patients (18-55 years) with RMS; experiment: Pre-specified MRI endpoints (Example 2); assay type: in vivo, human; settings: PON 20 mg vs TER 14 mg; baseline to week 108
Description: as §2, §3

[6] = test system: adult subjects with relapsing MS; experiment: Time to first 24-week confirmed disability accumulation (CDA) on EDSS; assay type: in vivo, human
Description: as §1
A 24-week CDA is an increase of at least 1.5 in EDSS for subjects with a baseline EDSS score of 0.0 or an increase of at least 1.0 in EDSS for subjects with a baseline EDSS score of 1.0 to 5.0, or an increase of at least 0.5 in EDSS for subjects with a baseline EDSS score ≥5.5 which is to be confirmed after 24 weeks.
Baseline EDSS is defined as the last EDSS score recorded prior to randomization. The initial EDSS increase, meeting the above criteria, is defined as the onset of disability accumulation.
All EDSS measurements (with or without relapse, at a scheduled or unscheduled visit) were used to determine the onset of disability accumulation. […]

[7] = Reasons for premature treatment discontinuation; assay type: in vivo
Description: A total of 1468 subjects were screened. Of those, 1133 subjects were randomized (567 to ponesimod 20 mg and 566 to teriflunomide 14 mg) across 162 sites in 28 countries, and 1131 subjects received at least one dose of study drug. The disposition of subjects is summarized in Table 1 and a summary of reasons (primary reason) for treatment discontinuation are shown in Table 2. Overall treatment and study discontinuation were balanced across both treatment arms. A total of 6.5% and 2.5% of the subjects discontinued due to AEs or tolerability related reasons in ponesimod 20 mg and teriflunomide 14 mg, respectively, while 1.9% and 4.3% discontinued due to efficacy related reasons. There were 2 deaths reported during the study—both on teriflunomide 14 mg.

[8] = 12-lead ECG heart rate on Day 1, change from pre-dose; assay type: in vivo, human
Description: As per up-titration regimen, the dose of ponesimod on Day 1 is 2 mg.

[9] = Day 1 (ponesimod dose 2 mg per up-titration), Safety Set, N = 565 / 566
[10] = Safety Set, ponesimod 20 mg N = 565, teriflunomide 14 mg N = 566
[11] = ponesimod 20 mg, teriflunomide 14 mg

CCC/N=C1\S/C(=C\c2ccc(OC[C@H](O)CO)c(Cl)c2)C(=O)N1c1ccccc1C [Ponesimod, (R)-5-[3-chloro-4-(2,3-dihydroxy-propoxy)-benz[Z]ylidene]-2-([Z]-propylimino)-3-o-tolyl-thiazolidin-4-one]
AESI effect on heart rate and rhythm (including hypotension) on Day 1: Subjects with at least one AE [1, 9]: 2.1%
AESI heart rate and rhythm on Day 1, PT: Electrocardiogram QT prolonged [1, 9]: 0 n
AESI heart rate and rhythm on Day 1, PT: Presyncope [1, 9]: 0 n
Subject with at least one AE (treatment-emergent) [1, 10]: 88.8%
Subject with at least one AE leading to study drug discontinuation [1, 10]: 8.7%
Subject with at least one Fatal AE [1, 10]: 0 n
Subject with at least one Serious AE [1, 10]: 8.7%
TEAEs leading to premature discontinuation of study drug, SOC: Reproductive system and breast disorders [1, 10]: 0 n
TEAEs leading to premature discontinuation of study drug, SOC: Surgical and medical procedures [1, 10]: 0 n
Treatment-emergent AESI: Hepatobiliary disorders/Liver enzyme abnormality [1, 10]: 25.7%
Treatment-emergent AESI: Hypertension [1, 10]: 10.1%
Treatment-emergent AESI: Pulmonary events [1, 10]: 8.0%
TEAE: ALT increased [1, 11]: 19.5%
TEAE: headache [1, 11]: 11.5%
TEAE: nasopharyngitis [1, 11]: 19.3%
TEAE: upper respiratory tract infection [1, 11]: 10.6%
Proportion of subjects who experienced ALT increase >3×ULN [2]: 17.3%
Proportion of subjects who experienced ALT increase >8×ULN [2]: 0.7%
Reduction of the number of CUALs between baseline and week 108 compared to teriflunomide 14 mg ([3]; ponesimod 20 mg): 56%
CUAL treatment effect (Rate Ratio) ([3]; ponesimod 20 mg vs teriflunomide 14 mg, baseline to Week 108): 0.44
NEDA-3, odds ratio (OR) [4]: 1.70
New Gd+T1 lesions per scan, rate ratio [RR] [5]: 0.42
New/enlarging T2 lesions per year, RR [5]: 0.44
Time to first 24-week CDA, hazard ratio ([6]; ponesimod 20 mg vs teriflunomide 14 mg, stratified Cox regression): 0.84
Reduction of the risk of 24-week CDA compared to teriflunomide 14 mg ([6]; ponesimod 20 mg, not statistically significant): 16%
Premature treatment discontinuation: Death [7, 10]: 0 n
Subjects who discontinued due to AEs or tolerability related reasons [7, 11]: 6.5%
Mean heart rate reduction compared to pre-dose (maximum) ([8]; Day 1, 2-hours post dose, ponesimod arm dose on Day 1 is 2 mg): −8.7 bpm
ECG HR effect: time of nadir / maximum mean heart rate reduction post-dose ([8]; Day 1, first dose (ponesimod 2 mg per up-titration)): 2 h
Subjects with asymptomatic post-dose HR≤40 bpm ([8]; Day 1, all had pre-treatment HR<55 bpm): 3
